{"source": "patent US8084431B2", "about": "“Method for inhibiting activation of macrophages, inhibiting formation of osteoclasts, inhibiting function of osteoclasts, and/or activating osteoblasts” (China Medical University, priority 2008, dated 2011)", "key": {"[1]": {"test_system": "myelocytes of rats", "assay": "Formation of osteoclasts from rat myelocytes (RANKL + M-CSF, TRAP stain)", "type": "cell-based, Wistar rats", "settings": "Rattus norvegicus, Osteoclast, 216 h, 10 nM, 9 days", "method": "Myelocytes were first prepared. Male Wistar rats with the body weight of 250 g to 300 g were used to prepare myelocytes. Under the condition of anaesthesia, the femurs of the rats were taken, and myelocytes were washed out with a phosphate buffer solution. […] After incubation for 9 days, monocytes in the marrow differentiated into osteoclasts. The osteoclasts were stained with a TRAP (tartrate-resistant acid phosphatase) stain reagent (Sigma, Louis, Mo., USA), and the number of the osteoclasts was calculated. Besides the same RANKL and M-CSF as the control group, various concentrations (0, 5, 25, 50, and 100 μM) of kinsenoside or 10 nM of estradiol (Wako, Japan) were added into culture plates, respectively. Then, rat myelocytes were incubated for 9 days, and the situation that the myelocytes differentiated into osteoclasts was observed. The percentage of the inhibition effect of kinsenoside and estradiol on the formation of osteoclasts was calculated with the following formula, and the result is shown in Table 9. Inhibition percentage (%)=(the number of osteoclasts of the control group−the number of osteoclasts of the experimental group)/the number of osteoclasts of the control group×100% In addition to the aforesaid RANKL, kinsenoside, and/or estradiol, the inhibitor of estradiol, Fulvestrant (Sigma, Louis, Mo., USA) (1 nM), was also added into culture plates. Then, rat myelocytes were incubated for 9 days, and the situation that the myelocytes differentiated into osteoclasts was observed. The percentage of the inhibition effect of kinsenoside on the formation of osteoclasts was calculated, and the result is shown in Table 9."}, "[2]": {"test_system": "macrophages RAW 264.7", "assay": "Formation of osteoclasts from macrophages RAW 264.7 (RANKL, TRAP stain)", "type": "cell-based", "settings": "Mus musculus, RAW264.7, 120 h; 10 nM, RANKL 50 ng/ml, 5 days; read-out: inhibition percentage", "method": "If macrophages RAW 264.7 are incubated in culture plates containing 50 ng/ml of differentiation inducer, RANKL, they usually differentiate into osteoclasts after 5 days. In Experiment H, various concentrations (0, 10, and 50 μM) of kinsenoside or 10 nM of estradiol were added into culture plates containing macrophages RAW 264.7, respectively, and the macrophages RAW 264.7 were incubated for 5 days. […] The number of osteoclasts was counted, and the inhibition percentage of the formation of osteoclasts was calculated with the following formula, and the result is shown in Table 11. Inhibition percentage=(the number of osteoclasts in the control group−the number of osteoclasts in the experimental group)/the number of osteoclasts in the control group×100%"}}, "note": "Read-outs that look alike come from different tables or passages of the source.", "data": [{"molecule": "C[C@]12CC[C@@H]3c4ccc(O)cc4CC[C@H]3[C@@H]1CC[C@@H]2O", "note": "[estradiol, reference compound]", "values": [{"measurement": "inhibition at 0.01 µM", "setting": "[1]; with Fulvestrant 1 nM, read-out: inhibition percentage Experimental Group II", "result": "24 ± 13.5", "unit": "%"}, {"measurement": "inhibition at 0.01 µM", "setting": "[1]; without Fulvestrant, read-out: inhibition percentage Experimental Group I", "result": "45.7 ± 10.5", "unit": "%"}, {"measurement": "inhibition at 0.01 µM", "setting": "[2]", "result": "61 ± 16", "unit": "%"}]}]}
